Columns and labels:
IKZF1 Ikaros [1] = target: T1, IKZF1 Ikaros (Homo sapiens, UniProt Q13422+Q96SW2); assay: Human Regulatory T Cell Degradation Assay (Ikaros); format: cell-based; details: human regulatory T cells, 20 h; concentration reducing protein level by 50% compared to DMSO alone
Procedure: Cryopreserved human regulatory T cells were thawed in RPMI+10% FBS+20 ng/mL IL-2. After being spun at 1200 rpm for 5 mins, the cells were resuspended in RPMI+10% FBS+20 ng/ml and rested at 37° C. with 5% CO2 for 3 hours. The cells were then plated at 40,000 cells/well in 40 μL RPMI+10% FBS+20 ng/mL human IL-2 in a 384 well cell culture plate prior to using acoustic dispensing technology (ECHO 555) for adding compounds of interest. Cell cultures were incubated for 20 hours at 37° C. and 5% CO2. In order to facilitate analysis, cell cultures were spun down at 1200 rpm for 5 minutes and the supernatant was discarded using an EL406 plate washer. After washing three times with […] PBS, cell pellets were resuspended in 50 μL of […] viability staining solution (Life Technologies, Cat #L34975) and incubated for 30 minutes on ice protected from light. Cells were washed three times with 70 μL PBS+0.5% BSA using an EL406 plate washer. After shaking the plate to dislodge the cell pellet, cells were resuspended in 50 μL of Fixation Buffer (eBioScience FoxP3 buffer set 00-5523-00) for 60 minutes at room temperature. After centrifuging and discarding the supernatant, cells were permeabilized with 50 μL of permeabilization buffer (eBioScience FoxP3 buffer set 00-5523-00) for 10 minutes at room temperature. Following permeabilization, cells were spun down and the supernatant was replaced with 30 μL fluorescently labelled antibodies against the intracellular targets Helios (Helios-APC [BioLegend, Cat #137222, 1:50])]), Aiolos, and Ikaros 1× Permeabilization buffer and staining reactions were incubated for 1 hour at room temperature; protected from light. Subsequently, […] Permeabilization buffer was added prior to centrifuging the cells and discarding the supernatant. Stained cells were resuspended in 30 μL of flow cytometry staining buffer (PBS+0.5% BSA) and analyzed using an Intellicyt Ique Plus flow cytometer.
(§1) Table B-1 lists the maximum observed degradation of the IKZF1 protein and IKZF2 protein as measured in the Human Regulatory T Cell Degradation assay. The results in Table B-1 were rounded to two digits. In the Human Regulatory T Cell Degradation assay, a value of 100% indicated no detectable protein remaining or complete degradation of the protein; and a value of 0% indicated no detectable degradation of the protein by the test compound.

IKZF1 Ikaros [2] = target: T1, IKZF1 Ikaros; assay: Jurkat Cellular Degradation Assay (Ikaros); format: cell-based; design: endogenous in cells; host or cells: Jurkat cells; details: Jurkat cells, 72 h; concentration reducing protein level by 50% compared to DMSO alone
Procedure: (§2) Jurkat cells were plated at 80,000 cells/well in 40 μL RPMI+10% FBS in a 384-well cell culture plate prior to using acoustic dispensing technology for adding a compound of interest. Cell cultures were incubated for 72 h at 37° C. and 5% CO2. In order to facilitate analysis, cell cultures were spun down at 200 rpm for 5 min and the supernatant was discarded. After shaking the plate to dislodge the cell pellet, cells were resuspended in 50 μL of Fixation Buffer (eBioscience FoxP3 buffer set 00-5523-00) for 60 min at room temperature. After centrifuging and discarding the supernatant, cells were permeabilized with 50 μL of Permeabilization buffer (eBioscience FoxP3 buffer set 00-5523-00) for 10 min at room temperature. Following permeabilization, cells were spun down and the supernatant was replaced with 20 μL fluorescently labelled antibodies against Helios, Ikaros and Aiolos or corresponding Isotype controls in 1× Permeabilization buffer (Ikaros-Alexa488 [Biolegend, Cat #368408, 1:50], Helios-PE [CST, Cat #29360, 1:50], Aiolos-Alexa647 [Biolegend, Cat #371106 Biolegend, 1:25]) and staining reactions were incubated for 1 h at room temperature while protected from light. Subsequently, 30 μL of 1× Permeabilization buffer was added prior to centrifuging the cells and discarding the supernatant. Stained cells were resuspended in 25 μL of flow cytometry staining buffer [PBS+0.2% bovine serum albumin (BSA)] and analyzed using an Intellicyt Ique Plus flow cytometer.
(§3) Table A-1 lists the maximum observed degradation of the IKZF1 protein, IKZF2 protein, and IKZF3 protein as measured in the Jurkat Cellular Degradation assay. The results in Table A-I were rounded to two digits. In the Jurkat Cellular Degradation assay, a value of 100% indicated no detectable protein remaining or complete degradation of the protein; and a value of 0% indicated no detectable degradation of the protein by the test compound.

IKZF3 Aiolos [3] = target: T2, IKZF3 Aiolos (Homo sapiens, UniProt Q96SW2+Q9UKT9); assay: Jurkat Cellular Degradation Assay (Aiolos); format: cell-based; design: endogenous in cells; host or cells: Jurkat cells; details: Jurkat cells, 72 h; concentration reducing protein level by 50% compared to DMSO alone
T2 sequence (Q9UKT9 whole entry): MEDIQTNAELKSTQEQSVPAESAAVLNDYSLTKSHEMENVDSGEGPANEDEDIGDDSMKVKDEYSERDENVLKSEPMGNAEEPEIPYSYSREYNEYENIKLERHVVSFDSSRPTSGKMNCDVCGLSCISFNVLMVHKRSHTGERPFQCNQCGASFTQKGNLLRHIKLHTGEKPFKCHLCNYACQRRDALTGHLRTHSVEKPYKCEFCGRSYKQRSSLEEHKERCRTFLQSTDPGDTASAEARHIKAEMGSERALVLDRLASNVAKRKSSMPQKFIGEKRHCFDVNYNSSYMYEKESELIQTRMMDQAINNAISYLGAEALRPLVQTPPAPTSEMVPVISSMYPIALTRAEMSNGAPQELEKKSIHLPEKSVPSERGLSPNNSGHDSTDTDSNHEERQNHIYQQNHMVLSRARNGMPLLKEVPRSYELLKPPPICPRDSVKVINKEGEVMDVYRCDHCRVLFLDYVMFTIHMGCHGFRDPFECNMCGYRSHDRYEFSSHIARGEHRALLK
T2 sequence (Q96SW2 whole entry): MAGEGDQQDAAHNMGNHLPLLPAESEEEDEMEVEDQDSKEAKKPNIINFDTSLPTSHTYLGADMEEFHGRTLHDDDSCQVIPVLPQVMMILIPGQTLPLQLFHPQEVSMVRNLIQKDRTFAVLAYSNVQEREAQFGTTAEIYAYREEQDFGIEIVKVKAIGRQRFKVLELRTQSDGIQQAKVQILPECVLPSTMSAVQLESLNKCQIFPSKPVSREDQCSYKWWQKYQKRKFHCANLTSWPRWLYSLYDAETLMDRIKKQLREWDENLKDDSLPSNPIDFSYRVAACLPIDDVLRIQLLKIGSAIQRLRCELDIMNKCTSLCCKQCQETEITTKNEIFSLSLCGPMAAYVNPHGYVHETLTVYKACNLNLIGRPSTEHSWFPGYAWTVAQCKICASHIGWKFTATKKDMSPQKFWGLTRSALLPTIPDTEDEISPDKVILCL
T2 sequence (Q16531 whole entry partner): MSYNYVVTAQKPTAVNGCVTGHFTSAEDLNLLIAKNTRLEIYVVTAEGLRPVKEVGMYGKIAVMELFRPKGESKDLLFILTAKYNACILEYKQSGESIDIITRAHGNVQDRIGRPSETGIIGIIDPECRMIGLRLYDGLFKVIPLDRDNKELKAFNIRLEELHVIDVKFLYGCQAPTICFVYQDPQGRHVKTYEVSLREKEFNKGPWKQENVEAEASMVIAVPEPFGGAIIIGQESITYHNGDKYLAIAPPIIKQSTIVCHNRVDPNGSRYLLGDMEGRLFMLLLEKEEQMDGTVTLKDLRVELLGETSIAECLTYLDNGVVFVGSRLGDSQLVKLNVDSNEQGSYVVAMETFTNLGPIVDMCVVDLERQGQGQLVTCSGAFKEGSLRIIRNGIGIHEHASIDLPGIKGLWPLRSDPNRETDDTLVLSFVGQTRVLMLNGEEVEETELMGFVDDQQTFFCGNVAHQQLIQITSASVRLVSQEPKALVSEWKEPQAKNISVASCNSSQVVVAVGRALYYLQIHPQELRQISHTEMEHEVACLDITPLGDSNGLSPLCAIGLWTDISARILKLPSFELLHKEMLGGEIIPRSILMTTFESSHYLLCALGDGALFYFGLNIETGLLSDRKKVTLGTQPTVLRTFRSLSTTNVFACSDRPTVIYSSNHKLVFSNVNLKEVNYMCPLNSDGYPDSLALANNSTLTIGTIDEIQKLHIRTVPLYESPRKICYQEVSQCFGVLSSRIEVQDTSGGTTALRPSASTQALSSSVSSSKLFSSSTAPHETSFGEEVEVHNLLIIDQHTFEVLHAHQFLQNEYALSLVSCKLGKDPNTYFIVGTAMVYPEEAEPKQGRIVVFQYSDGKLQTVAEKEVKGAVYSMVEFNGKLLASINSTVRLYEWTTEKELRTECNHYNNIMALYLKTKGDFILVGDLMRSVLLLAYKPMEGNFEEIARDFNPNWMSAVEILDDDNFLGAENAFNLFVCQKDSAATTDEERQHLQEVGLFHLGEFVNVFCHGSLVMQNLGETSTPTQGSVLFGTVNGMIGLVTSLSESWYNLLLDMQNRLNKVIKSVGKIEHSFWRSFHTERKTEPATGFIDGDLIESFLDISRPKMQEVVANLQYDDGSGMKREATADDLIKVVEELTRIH
Procedure: as §2, §3

IKZF1 Ikaros [4] = target: T1, IKZF1 Ikaros; assay: Human CD8+ T Cell Reprogramming (Degradation) Assay (Ikaros); format: cell-based; design: Cryopreserved healthy donor human peripheral blood mononuclear cells (PBMC); endogenous in cells; host or cells: CD8+ T cells within healthy donor human PBMC; details: CD8+ T cells, human PBMC, 24 h; concentration reducing protein level by 50% compared to DMSO alone
Procedure: (§4) Cryopreserved healthy donor human peripheral blood mononuclear cells (PBMC) from healthy donors were thawed and seeded at 500,000 cells/well of 96-well round bottom plates in RPMI 1640 media (Gibco) supplemented with 10% FBS, Pen/Strep (Gibco), MEM-NEAA (Gibco), and sodium pyruvate (Gibco). Cells were treated with titrated doses of compound for 24 hours at 37° C., 5% CO2 before analyzing by flow cytometry.
(§5) For flow cytometry staining, cells were washed twice with flow cytometry staining buffer (Thermo Fisher) and incubated in Human Tru-stain Fc block (Biolegend) for 10 minutes before adding eFluor780 viability dye (Thermo Fisher) and surface marker antibody cocktail containing LD-eFluor780, CD3-BUV-395, CD4-BUV805, CD8-FITC, and CD25-BV605 for 30 minutes at 4° C. Cells were then fixed and permeabilized by incubation with permeabilization buffer (eBioscience FoxP3 buffer set 00-5523-00) for 30 minutes at 4° C. as per the kit manufacturer's instructions. Cells were washed twice with the Perm/Wash buffer supplied in the kit as per the manufacturer's instructions and incubated overnight at 4° C. with an intracellular antibody cocktail comprised of antibodies specific for the transcription factors (i.e., Foxp3-BV421, HELIOS-PE-Cy7, EOS-PE, IKAROS-PECF594, AIOLOS-AF647). Cells were washed twice with Perm/Wash buffer and resuspended in flow cytometry staining buffer (Thermo Fisher) prior to acquisition. Sample acquisition and analysis was performed using a BD LSRFortessa (BD Biosciences) flow cytometer. Single-stain controls for each fluorochrome were prepared using UltraComp eBead Compensation Beads (Thermo Fisher). Data were analyzed using FlowJo version 10 and GraphPad Prism Software.
as §1, with “D-1” for “B-1”, “IKZF3” for “IKZF2”, “CD8^+” for “Regulatory”, “Reprogramming” for “Degradation”

IKZF3 Aiolos [5] = target: T2, IKZF3 Aiolos; assay: Human CD8+ T Cell Reprogramming (Degradation) Assay (Aiolos); format: cell-based; design: Cryopreserved healthy donor human peripheral blood mononuclear cells (PBMC); endogenous in cells; host or cells: CD8+ T cells within healthy donor human PBMC; details: CD8+ T cells, human PBMC, 24 h; concentration reducing protein level by 50% compared to DMSO alone
Procedure: as §4, §5
as §1, with “D-1” for “B-1”, “IKZF3” for “IKZF2”, “CD8^+” for “Regulatory”, “Reprogramming” for “Degradation”

solid tumors = details: sometimes; patients with solid tumors / advanced malignancies; cited from earlier work

T1 sequence (Q13422 whole entry): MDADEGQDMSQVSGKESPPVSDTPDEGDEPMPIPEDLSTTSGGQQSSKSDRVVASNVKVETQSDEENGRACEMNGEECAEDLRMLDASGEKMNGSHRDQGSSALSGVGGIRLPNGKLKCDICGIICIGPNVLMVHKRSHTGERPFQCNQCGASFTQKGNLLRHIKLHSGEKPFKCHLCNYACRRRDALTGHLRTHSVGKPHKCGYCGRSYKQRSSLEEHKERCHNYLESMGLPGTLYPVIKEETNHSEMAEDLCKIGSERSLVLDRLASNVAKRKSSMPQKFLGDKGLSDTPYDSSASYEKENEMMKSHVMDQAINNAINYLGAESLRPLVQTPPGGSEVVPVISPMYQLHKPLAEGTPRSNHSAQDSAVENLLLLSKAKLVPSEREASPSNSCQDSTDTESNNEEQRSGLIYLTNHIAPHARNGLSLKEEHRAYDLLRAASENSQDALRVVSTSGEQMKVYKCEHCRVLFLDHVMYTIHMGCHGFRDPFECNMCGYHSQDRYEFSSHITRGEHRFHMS
T1 sequence (Q96SW2 whole entry): as the sequence (Q96SW2 whole entry) above
T1 sequence (Q16531 whole entry partner): as the sequence (Q16531 whole entry partner) above

Row | DC50 (IKZF1 Ikaros [1]) | DC50 (IKZF1 Ikaros [2]) | DC50 (IKZF3 Aiolos [3]) | DC50 (IKZF1 Ikaros [4]) | DC50 (IKZF3 Aiolos [5]) | SMILES | clinical response in patients with solid tumors (solid tumors)
1 | > 10 µM | > 10 µM | > 10 µM | > 1 µM | > 1 µM | O=C1CCC(N2Cc3c(ccc(-c4cc(CN5CC(c6ccccc6)C5)ccn4)c3F)C2=O)C(=O)N1 (stereo not shown) [Comparative Compound A, 3-(4-fluoro-1-oxo-5-(4-((3-phenylazetidin-1-yl)methyl)pyridin-2-yl)isoindolin-2-yl) piperidine-2,6-dione, reference compound] | –
2 | > 10 µM | > 10 µM | > 10 µM | > 1 µM | > 1 µM | Nc1nc(-c2ccc3c(c2)CN(C2CCC(=O)NC2=O)C3=O)ccc1CN1CC2(CCC2)C1 (stereo not shown) [Comparative Compound B, 3-(5-(5-((2-azaspiro[3.3]heptan-2-yl)methyl)-6-aminopyridin-2-yl)-1-oxoisoindolin-2-yl) piperidine-2,6-dione, reference compound] | –
3 | – | – | – | – | – | Cc1nc2cccc(N)c2c(=O)n1C1CCC(=O)NC1=O (stereo not shown) [avadomide] | modest responses of stable disease
4 | – | – | – | – | – | Nc1cccc2c1CN(C1CCC(=O)NC1=O)C2=O (stereo not shown) [lenalidomide] | modest responses of stable disease
5 | – | – | – | – | – | Nc1cccc2c1C(=O)N(C1CCC(=O)NC1=O)C2=O (stereo not shown) [pomalidomide] | modest responses of stable disease

From patent publication US20260335299A1, “SUBSTITUTED OXOISOINDOLINYL PIPERIDINE-2,6-DIONE COMPOUND AS ANTICANCER AGENT” (BRISTOL-MYERS SQUIBB COMPANY, priority 2023, published 2026)
